The values that follow come from US6914046B1, “NF-κB activation inhibitors, and their pharmaceutical uses” (Centre National de la Recherche Scientifique, priority 1999, dated 2005).

Entries after “also recorded” stand apart in the source; their conditions may differ.

For assay [1], the system named is human ovarian adenocartcinoma IGROV/ADR. The assay can be described thus: Death of adriamycine resistant IGROV/ADR cells by daunomycin with recombinant HGH. The assay is classed as cell-based. The source says: To test the possibility of using the object of the present invention on non-lymphoid tumors, the inventors have used HGH to try to invert the “adriamycine resistant” phenotype of cells isolated from a human ovarian adenocartcinoma IGROV/ADR (Bénard J et coll., 1985, Cancer Res, 45:4970-4979).
FIG. 5: Effect of growth hormone on the apoptosis of the IGROV/ADR line, induced by daunomycin; the percentage of dead cells (IP+) is indicated on the ordinate, and different columns corresponding to the different concentrations of HGH used (0, 5, 50, 500, 1000 ng/ml); the concentrations of daunomycin are indicated on the abscissa in μM.

Assay [2] concerns human renal carcinoma cells (RCC) HIEG. The assay can be described thus: Number of living RCC cells 48 h after daunomycin, flow cytometry. It counts as cell-based. Here is the method: Erythropoietin (EPO), another molecule than HGH belonging to the same family of cytokines of class I, has been tested on human renal carcinoma cells (RCC) HIEG.
4.10^4 RCC cells have been transfected in a transitory manner with the help of an Effecten^R kit, or with 3 μg of plasmid carrying the gene encoding for EPO (RCC-EPO cells), or with 3 μg of a plasmid coding for the resistance to neomycin (RCC-Neo cells) as the negative control. After 48 hours, the RCC were combined with daunomycin at two different concentrations: 0.3 and 0.6 μM. The number of surviving cells was measured 48 hours later by flow cytometry (FIG. 6).
FIG. 6: Effect of erythropoietin on the apoptosis of the human renal carcinoma line HIEG, induced by daunomycin: for each of the experiments 1 and 2, the number of living cells is indicated on the ordinate, the white columns correspond to the RCC-Neo cells, the black columns correspond to the RCC-EPO cells; the concentrations of daunomycin are indicated on the abscissa in μM.
Background: A flow cytometer gives signals particle by particle.

The subject of assay [3] is NF-κB. As to conditions: human monocytes, exogenous recombinant HGH; cited from earlier work.
The subject of another assay is human monocytes. Nature of the assay: Death of human monocytes after engagement of APO1/CD95/Fas. The assay is classed as cell-based.
Assay [4] concerns NF-κB. The assay can be described thus: NF-κB-driven CAT reporter ELISA after -TNF stimulation. It counts as cell-based, human. As to conditions: U937-HGH versus U937-Neo cells. Here is the method: The cells are transfected by electroporation then incubated with -TNF. At the end of culturing, the cells are lysated and the activated CAT is measured by an commercial ELISA (Boehringer-Mannheim), according to the directions of the supplier.
FIG. 3: Effect of growth hormone on the reporter activity CAT; the percentage of variation of CAT activity is indicated on the abscissa; the two left columns show the two experiments carried out on U937-Neo cells, and the two right columns represent the two independent experiments carried out on U937-HGH cells.
(In general: In an ELISA, binding on a coated surface is turned into a signal by an enzyme label.)

The subject of assay [5] is U937-HGH and U937-Neo cells. The assay can be described thus: Propidium iodide incorporation (flow cytometry) after 48 h culture with recombinant -TNF. As to conditions: U937-HGH line versus U937 / U937-Neo control. It counts as cell-based, human. The source says: A selection gene (neomycin resistant, Neo^R) and the gene encoding for human growth hormone (HGH) have been co-transfected in the human promyeloid leukemic line U937. By comparing the transfected line U937-HGH (which produces in a constituent fashion HGH at physiologic doses), either to the parent line U937, or to a line transfected with Neo^R alone, there are observed by different methodological approaches, that the U937-HGH line dies more under the effect of the tumor necrosis factor (-TNF). This cytokine secreted by different types of immune cells has in an anti-tumor activity (Harakana, K et al., 1984, Int J Cancer, 34:263-267) and is capable of promoting the activation of NF-κB (Baeuerle P A, Henkel T, 1994, Ann Rev Immunol, 12:141-179).
The U937-HGH cells and the U937-Neo control cells have been cultured for 48 hours in the presence of increasing concentrations of recombinant -TNF. As a result of this culture, the washed cells have been incubated in the presence of propidium iodide which is incorporated in the DNA of the dead cells. These cells are analyzed by flowing cytometry. […]

Assay [6] has as its system NF-κB. The assay can be described thus: Gel delay analysis of nuclear extracts for NF-κB after -TNF stimulation. It counts as cell-based, human. As to conditions: U937-HGH cells versus U937 control cells, -TNF or -TNF and cycloheximide. The source says: On this gel were deposited nuclear extracts from the U937-HGH and U937 cells (the mother line having served for obtaining the U937-HGH lines) subjected to different inductors including -TNF or -TNF and cycloheximide (inhibitor of protein synthesis).
FIG. 2: The effect of growth hormone on the translocation of NF-κB; column 1 corresponds to the control cells U937, column 2 corresponds to the U937 cells treated with -TNF+cycloheximide, column 3 corresponds to the U937 cells treated with -TNF, column 4 corresponds to the U937 cells treated with -TNF+a mutant NF-κB probe, column 5 corresponds to the U937 cells treated with -TNF +a homologous NF-κB probe, column 6 corresponds to the control cells U937-HGH, column 7 corresponds to the U937-HGH cells treated with -TNF+cycloheximide, column 8 corresponds to the U937-HGH cells treated with -TNF; the presence of NF-κB is indicated by an arrow.

Assay [7] has as its system U937-HGH and U937-Neo cells. The assay can be described thus: Death mediated by daunomycin in U937-HGH versus control line (IP+ cells). It counts as cell-based, human. The text has this:
FIG. 4: Effect of growth hormone on apoptosis induced by daunomycin; the percentage of the dead cells (IP+) is indicated on the ordinate, the white columns corresponding to the cells of the strain U937-Neo, the black columns corresponding to the cells of the strain U937-HGH; the indicated percentages show the increase of mortality of the cells; the concentrations of daunomycin are indicated on the abscissa in μM.

As to `COc1cccc2c1C(=O)c1c(O)c3c(c(O)c1C2=O)C[C@@](O)(C(C)=O)C[C@@H]3O[C@H]1C[C@H](N)[C@H](O)[C@H](C)O1` [daunomycin], the “toxic effect of daunomycin on IGROV/ADR cells” value in assay [1] (HGH 0 ng/ml) was “insensitive to the toxic effect”. In addition, the “numbers of living cells” value is reported as 3487 in assay [2] (Experiment 1, RCC-EPO cells, daunomycin 0.3 μM); 8551 in assay [2] (Experiment 1, RCC-EPO cells, daunomycin 0.6 μM); 11382 in assay [2] (Experiment 1, RCC-Neo cells, daunomycin 0.3 μM); 10179 in assay [2] (Experiment 1, RCC-Neo cells, daunomycin 0.6 μM); 2693 in assay [2] (Experiment 2, RCC-EPO cells, daunomycin 0.3 μM); 4739 in assay [2] (Experiment 2, RCC-EPO cells, daunomycin 0.6 μM). Besides, the “numbers of living cells” value in assay [2] (Experiment 2, RCC-Neo cells, daunomycin 0.3 μM) is on record as 8891; in assay [2] (Experiment 2, RCC-Neo cells, daunomycin 0.6 μM), 7001.

B1: HGH: human growth hormone (SEQ ID NO 2); produced by transfected U937-HGH line or recombinant exogenous HGH (Saizen, Serono) (protein, listed as Homo sapiens)
chain: MATGSRTSLLLAFGLLCLPWLQEGSAFPTIPLSRLFDNASLRAHRLHQLAFDTYQEFNPQTSLCFSESIPTPSNREETQQKSNLELLRISLLLIQSWLEPVQFLRSVFANSLVYGASDSNVYDLLKDLEEGIQTLMGRLEDGSPRTGQIFKQTYSKFDTNSHNDDALLKNYGLLYCFRKDMDKVETFLRIVQCRSVEGSCGF
As for B1, the “dose of HGH giving maximum effect” value in assay [1] (lowest dose of HGH used, sensitisation to daunomycin) is 5 ng/mL. Further, the “effect of recombinant HGH on sensitivity of IGROV/ADR cells to daunomycin” value in assay [1] (recombinant HGH (Saizen) added to culture) is “renders these cells sensitive to daunomycin”. For the same molecule, the “activation of NF-κB after stimulation by LPS” value with NF-κB [3] was “inhibits the activation of NF-κB”. Also, in the assay with human monocytes, the “death mediated through the molecule Fas” value is recorded as “decreases the death” and the “synthesis of proto-oncogene Bc1-2” value is on record as “increasing the synthesis”. Moreover, in the assay on NF-κB [4], the “CAT activity, reflected by the presence of NF-κB” value is “decreased in the U937-HGH cells relative to the control cells”. In addition, the “effect of HGH on death mediated by -TNF” value in assay [5] was “accelerates the death of these cells; also recorded: increases their susceptibility to the induction of death”. The “presence of NF-κB in the nuclei” value in the assay on NF-κB [6] was “decreased relative to the control cells”. Further, the “sensitivity to death mediated by daunomycin” value in assay [7] is on record as “more sensitive than the control line”.
